PMC8703873, “Structure and Activity of a Selective Antibiofilm Peptide SK-24 Derived from the NMR Structure of Human Cathelicidin LL-37” (Pharmaceuticals, 2021)
Values after ≈ are worked out from the molar mass of the structure shown. Non-standard residues stand in square brackets, D forms with d. Residues, ends and D or L forms follow the SMILES beside them. Bip = N[C@@H](Cc1ccc(-c2ccccc2)cc1)C(=O)O

Legend:
S. aureus USA300 = format: cell-based, Staphylococcus aureus
Experimental: (§1) The antibiotic-resistant pathogens used in this study include the Gram-positive bacteria Enterococcus faecium V286-17 and Staphylococcus aureus USA300 LAC and the Gram-negative bacteria Klebsiella pneumoniae E406-17, Acinetobacter baumannii B28-16, Pseudomonas aeruginosa E411-17, and Escherichia coli E423-17. All bacteria were cultivated in tryptic soy broth (TSB) at 37 °C, 220 rpm.
(§2) The antibacterial activity of peptides was evaluated using a standard broth microdilution protocol with minor modifications. In brief, peptides were made at various concentrations, 10 μL per well in a 96-well polystyrene microplate. Logarithmic phase bacterial cultures (i.e., optical density (OD) at 600 nm ≈ 0.5) were diluted to 0.001 OD, and aliquots of 90 μL were added to each well. Untreated bacterial culture and medium were included as positive and negative controls, respectively. Plates were incubated at 37 °C overnight and read at 630 nm using a ChroMate Microplate Reader (Awareness Technology, Palm City, FL, USA). […] Our previously designed peptide 17BIPHE2 [32] was included as a positive control, and RI-10, a peptide without antibacterial activity in rich media, was utilized as a negative control.

K. pneumoniae E406-17 = format: cell-based, Klebsiella pneumoniae; conditions: E406-17
Experimental: as §1, §2

[1] = test system: S. aureus USA300 LAC preformed biofilms; assay: Disruption of preformed biofilms (XTT); format: cell-based, Staphylococcus aureus
Experimental: The antibiofilm activities of peptides against the preformed biofilms of A. baumannii B28-16 and S. aureus USA300 LAC were evaluated as follows. Bacteria in the logarithmic growth phase were adjusted to a cell density of 10^5 colony forming unit (CFU)/mL. Two hundred microliter cells were seeded into each well of the 96-well plates. The plates were incubated at 37 °C to allow for the formation of biofilm for 24, 48, and 72 h, respectively. The planktonic cells were then removed, followed by a wash. The biofilms were then treated with 20 µL of 10× two-fold diluted peptides and 180 µL of fresh TSB media for 24 h at 37 °C. Cultures treated with water without peptide served as the positive control, and media treated with water was used as the negative control. To quantify the antibiofilm activity of the peptides, the XTT [2, 3-bis (2-methyloxy-4-nitro-5-sulfophenyl)-2H-tertazolium-5-carboxanilide] assay staining method was used to quantitate the live cells. Absorbance was read at 450 nm using a ChroMate microliter plate reader. The percentage biofilm growth for the peptide was plotted by assuming 100% biofilm growth in untreated bacterial control wells. Data were represented as mean ± standard deviation (SD). The data are statistically significant at p < 0.05. Plots were generated using GraphPad Prism v7 (GraphPad Software, San Diego, CA, USA).

Human red blood cells = assay: Hemolytic assay; format: cell-based; conditions: red cells of human, 1 h
Experimental: Human red blood cells (hRBCs, the UNMC Blood Bank) were washed three to five times with saline (Fisher Scientific, Waltham, MA, USA) at 800 g for 10 min each time, until the supernatant was clear. The supernatant was discarded, and hRBCs were suspended in saline at a final density of 2%. Ninety microliters of hRBC suspensions were added to each well of 96-well plates containing 10 µL of 10× serially diluted peptides. After incubation at 37 °C for 1 h, the plates were centrifuged at 1500 rpm for 5 min. About 80 µL of the supernatant was carefully pipetted to a new 96-well microplate and read at 545 nm to measure the amount of hemoglobin released. The positive control was 1% Triton X-100, and the negative control was saline. The percentage of hRBC lysis was calculated based on the hemoglobin released.

A. baumannii B28-16 = assay: Membrane permeabilization (propidium iodide); format: cell-based, Acinetobacter baumannii; conditions: peptide 16 µM; propidium iodide fluorescence, 2 h, PBS, 37 °C
Experimental: Membrane permeabilization was evaluated as described. In brief, bacteria were inoculated and grown overnight. A second inoculation was made and let bacteria grow to the exponential phase. Bacteria were then spun, washed, and resuspended in the same volume of PBS. A series of peptide solutions (10×) was made via two-fold dilution in a 96-well plate (10 µL each). All wells were aliquoted with 2 µL of propidium iodide (20 µM), followed by adding 88 µL of S. aureus USA300 or A. baumannii B28-16 (OD600 ~0.11 in PBS). The plate was incubated at 37 °C with continuous shaking at 100 rpm in a FLUOstar Omega microplate reader (BMG Labtech Inc., Cary, NC, USA). Fluorescence was recorded every 5 min for 2 h with excitation and emission wavelengths of 485 and 620 nm. The data were analyzed by the vendor’s software using averaged values from duplicated experiments.

E. coli E423-17 = format: cell-based, Escherichia coli
Experimental: as §1, §2

[2] = test system: clinical and antibiotic-resistant pathogens (panel of Table 3); format: cell-based; conditions: all six pathogens
Experimental: as §1, §2

[3] = test system: S. aureus USA300 LAC preformed biofilms; conditions: S. aureus USA300 LAC and other clinical strains (USA200, USA400, Mu50); cited from earlier work
Experimental: Here, we compared the antibiofilm activity of SK-24 with that of GF-17, GI-20, and 17BIPHE2 against the 24 h preformed biofilms of S. aureus USA300. […] Only SK-24 a ...

MIC (S. aureus USA300): 4 µM (≈ 9.02 µg/mL)
MIC (K. pneumoniae E406-17): 4 to 8 µM
MIC (E. coli E423-17): 4 µM (≈ 9.02 µg/mL)
MIC range over the pathogens of Table 3 [2]: 2 to 8 µM
Compound: CC(C)C[C@H](NC(=O)[C@H](CC(N)=O)NC(=O)[C@H](CCCNC(=N)N)NC(=O)[C@@H](CC(C)C)NC(=O)[C@H](Cc1ccc(-c2ccccc2)cc1)NC(=O)[C@H](CC(=O)O)NC(=O)[C@H](CCCCN)NC(=O)[C@@H](CC(C)C)NC(=O)[C@H](CCCNC(=N)N)NC(=O)[C@H](CCC(N)=O)NC(=O)[C@@H](NC(=O)[C@@H](CC(C)C)NC(=O)[C@H](CCCNC(=N)N)NC(=O)[C@H](CCCCN)NC(=O)[C@H](Cc1ccc(-c2ccccc2)cc1)NC(=O)CN)C(C)C)C(=O)N[C@H](C(N)=O)C(C)C [Peptide 17BIPHE2] (H-G[Bip]KR[dL]VQR[dL]KD[Bip][dL]RNLV-NH2; N-terminus assumed)
Antibiofilm effect on 24 h preformed biofilms ([1]; 24 h preformed biofilms of S. aureus USA300, XTT): antibiofilm effect in a dose-dependent manner
Staphylococcal biofilm remaining (reduced to) ([1]; 24 h preformed biofilms, peptide 32 μM, relative to untreated control = 100%): ~ 25%
HC50 (50% hemolytic concentration) (Human red blood cells): ~ 200 µM
Membrane permeation (A. baumannii B28-16): superior to SK-24
Disruption of 24 h preformed biofilms (words, found previously) [3]: highly effective
